# Measured values: PubChem BioAssay (NCI)
# Several values for one entry are separate records, joined by “and”; a condition that tells them apart may be missing. Identical values can stand only once.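 Dose response: 5 concentrations. Exposure: 48 h. Format: 96-well plates. Endpoint: linear interpolation; highest concentration if not reached. Abbreviation: GI50, concentration required for 50% inhibition of growth. TGI is the concentration that stops growth completely.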 Where a SMILES comes first, the peptide text is derived from it. [ ]: non-standard residue; d: D form. The star is where a group is joined. ξ: configuration not given here. NMeF = CN[CH](Cc1ccccc1)C(=O)O; ξNMe2Val = CC(C)C(C(=O)*)N(C)C; NMeV = CN[CH](C(=O)O)C(C)C; ξNMeV = CNC(C(=O)O)C(C)C; Boc = CC(C)(C)OC(=O)*; OBn = c1ccc(CO*)cc1; OtBu = CC(C)(C)O*
# Key:
# Assay in all cases: inhibition of tumour cell growth, NCI panel, 48 h
# [1] = tested on: A498 renal
# [2] = tested on: EKVX NSCLC
# [3] = tested on: HT29 colon
# [4] = tested on: NCI-H460 lung
# [5] = tested on: NCI/ADR-RES ovarian
# [6] = tested on: OVCAR-8 ovarian
# [7] = tested on: SF-268 CNS
# [8] = tested on: SNB-19 CNS
# [9] = tested on: U251 CNS
# [10] = tested on: HOP-92 NSCLC
Structure (SMILES),TGI [1],TGI [2],TGI [3],TGI [4],TGI [5],TGI [6],TGI [7],TGI [8],TGI [9],TGI [10],GI50 [2],GI50 [10],GI50 [8],GI50 [9]
Cc1nc2ccc(NC3OCC(O)C(O)C3O)cc2c(=O)n1-c1ccccc1 (stereo unspecified),> 100 µM,> 100 µM,> 100 µM,> 100 µM,> 100 µM,> 100 µM,> 100 µM,> 100 µM,> 100 µM,–,–,–,–,–
CC(C)C(C(=O)N(C)C(Cc1ccccc1)C(=O)N(C)C(C(=O)N(C)C(C(=O)N1CCCC1C(=O)OC(C)(C)C)C(C)C)C(C)C)N(C)C (stereo unspecified) (ξNMe2Val-[NMeF][NMeV][NMeV]P-OtBu; configuration not given here),–,> 100 µM,> 100 µM,> 100 µM,–,> 100 µM,> 100 µM,> 100 µM,–,–,–,–,–,–
Cc1nn2c(c1C#N)NNc1c-2sc(=N)nnc1=O,–,> 100 µM,> 100 µM,–,–,> 100 µM,> 100 µM,> 100 µM,> 100 µM,> 100 µM,–,–,–,–
C=CCOC(=O)Cn1ccc(=O)[nH]c1=O,> 100 µM,> 100 µM,> 100 µM,> 100 µM,> 100 µM,> 100 µM,> 100 µM,> 100 µM,> 100 µM,–,–,–,–,–
COC(=O)c1c2c(cc3c1CC1(Cc4ccccc4C1)C3)CCC2,> 100 µM,98.7 µM,34 µM,> 100 µM,96.1 µM,> 100 µM,> 100 µM,–,48.6 µM,> 100 µM,–,–,–,–
Cc1ccc(S(=O)(=O)N(CCNC(=O)c2cccc(O)c2O)c2cc3c4c(c2)Oc2cccc5c2C4(C)c2c(cccc2O3)O5)cc1,> 100 µM,> 100 µM,> 100 µM,> 100 µM,58 µM,> 100 µM,> 100 µM,> 100 µM,> 100 µM,–,–,–,–,–
CN(C)CCC[N+]1=Nc2cccc3cccc(c23)N1,92.6 µM,> 100 µM,> 100 µM,> 100 µM,–,> 100 µM,> 100 µM,> 100 µM,> 100 µM,> 100 µM,–,–,–,–
Nc1ccn(C2CCC(COP(=O)(O)OCC(O)COP(=O)(O)OCC3OC(n4cc(F)c(=O)[nH]c4=O)CC3O)O2)c(=O)n1 (stereo unspecified),–,> 100 µM,> 100 µM,> 100 µM,> 100 µM,> 100 µM,> 100 µM,> 100 µM,> 100 µM,4.59 µM,–,–,–,–
O=c1/c(=C/c2ccccn2)sc2nc3cc4c(cc3n12)OCCO4,> 100 µM,–,> 100 µM,> 100 µM,> 100 µM,> 100 µM,> 100 µM,> 100 µM,> 100 µM,> 100 µM,–,–,–,–
C=C(C)CCC1C=[N+]([O-])OC(C)(C)C1(C)C (stereo unspecified),> 100 µM,> 100 µM,> 100 µM,> 100 µM,> 100 µM,> 100 µM,> 100 µM,–,> 100 µM,> 100 µM,–,–,–,–
CC(C)(C)OC(=O)N1N=CCC1c1ccccc1 (stereo unspecified),> 100 µM,> 100 µM,> 100 µM,> 100 µM,> 100 µM,> 100 µM,> 100 µM,–,–,> 100 µM,–,–,–,–
COC(=O)C(CCC1(C)OCCO1)=[N+]=[N-],> 100 µM,> 100 µM,> 100 µM,> 100 µM,–,> 100 µM,> 100 µM,> 100 µM,> 100 µM,–,–,–,–,–
CC#CCCCC1(C)CCNC1=S (stereo unspecified),–,> 10 µM,> 10 µM,> 10 µM,–,> 10 µM,> 10 µM,> 10 µM,> 10 µM,> 10 µM,–,–,–,–
COc1ccc(-c2cc(-c3ccc(Nc4ccnc5cc(Cl)ccc45)cc3)[nH]c(=O)c2C#N)cc1,> 100 µM,> 100 µM,–,> 100 µM,> 100 µM,> 100 µM,> 100 µM,> 100 µM,> 100 µM,> 100 µM,–,–,–,–
CSc1nc(NCc2ccccc2)c2cnn(COCCO)c2n1,–,63.5 µM,> 100 µM,> 100 µM,> 100 µM,> 100 µM,> 100 µM,–,> 100 µM,> 100 µM,–,–,–,–
CC(C)C(C(=O)N(C)[C@H](C(=O)N1CCC[C@H]1C(=O)N(C)[C@@H](Cc1ccccc1)C(=O)OCc1ccccc1)C(C)C)N(C)C(=O)[C@@H](NC(=O)OC(C)(C)C)C(C)C (stereo partly specified) (Boc-V[ξNMeV][NMeV]P[NMeF]-OBn),> 31.6 µM,> 31.6 µM,> 31.6 µM,> 31.6 µM,–,> 31.6 µM,> 31.6 µM,> 31.6 µM,> 31.6 µM,30.4 µM,–,–,–,–
CCNC(=S)NNC(=O)c1ccccc1Nc1ccccc1C(=O)NNC(=S)NCC,–,> 100 µM,> 100 µM,> 100 µM,> 100 µM,> 100 µM,–,> 100 µM,> 100 µM,> 100 µM,–,–,–,–
O=S(O)c1cc(Cl)c(O)c(Cl)c1,> 100 µM,> 100 µM,> 100 µM,> 100 µM,–,–,> 100 µM,> 100 µM,> 100 µM,–,–,–,–,–
CC(=O)NC(C)(C)C1CCC(C)CC1 (stereo unspecified),> 100 µM,> 100 µM,> 100 µM,> 100 µM,> 100 µM,> 100 µM,> 100 µM,> 100 µM,> 100 µM,–,–,–,–,–
O=c1[nH]c2ccc(CC(=S)N3CCOCC3)cc2o1,> 100 µM,> 100 µM,> 100 µM,> 100 µM,> 100 µM,> 100 µM,> 100 µM,–,> 100 µM,–,–,–,–,–
N#COc1ccc(Oc2ccc(OC#N)cc2)cc1,> 100 µM,> 100 µM,> 100 µM,> 100 µM,–,> 100 µM,> 100 µM,> 100 µM,> 100 µM,> 100 µM,–,–,–,–
CCN(C(=O)N[C@H](C(=O)N[C@@H](CSC)C(=O)N[C@@H](C)C(=O)OC)C(C)C)c1ccccc1,–,28.7 µM,27.2 µM,32.5 µM,> 100 µM,38.2 µM,–,33.4 µM,29.4 µM,26.3 µM,–,–,–,–
CC1OC(O[C@@H]2C=C3CC[C@@H]4[C@H](CC[C@]5(C)[C@@H](c6ccc(=O)oc6)CC[C@]45O)[C@@]3(C)CC2)C(O)C(OC2OC(CO)C(O)C(O)C2O)C1O (stereo partly specified),0.0825 µM,0.00534 µM and 0.0254 µM,0.0878 µM and 0.349 µM,0.00143 µM,–,0.0162 µM and 0.0299 µM,0.00983 µM,0.113 µM and 0.0674 µM,0.0176 µM and 0.0352 µM,–,0.000339 µM,0.000166 µM,0.00038 µM,0.000247 µM
